The text below walks through data of patent US20100306877A1, “FLAVONOID GLUCOSYLTRANSFERASE AND USE OF SAME” (International Flower Development Proprietary Limited, priority 2006, published 2010).

This experiment concerns protein encoded by cDNA contained in pSPB1123 (flavonol 3GT). In words: Glucosyltransferase activity of the protein encoded by pSPB1123 cDNA expressed in yeast, product measured by HPLC. The format is biochemical, rose. Particulars: flavonol substrates compared. From the text:
In order to analyze the activity of a protein encoded by cDNA contained in pSPB1123, this cDNA was expressed in yeast cells. Yeast expression vector pYE22m (Plant Cell Physiol. (1996) 37, 711-716) was used to express the cDNA in yeast. A fragment obtained by digested pSPB1123 cDNA with EcoRI and KpnI was inserted into an EcoRI and KpnI recognition sequence of pYE22m to obtain a yeast expression vector. This vector was then inserted into yeast strain G1315 followed by measurement of activity of the protein encoded by pSPB1123 according to the method described on pp. 114-118 of Shinseibutsugaku Jikken (New Biological Experiment) Manual 3 (Kagaku-Dojin Publishing Co., Inc.). The method for measuring activity and the conditions for measuring a product by HPLC were the same as the method and the like described in Plant Physiology (2003) 132, 1652-1663. Furthermore, anthocyanin (cyanidin, pelargonidin), cyanidin 3-glucoside (cyanidin 3G), cyanidin 3,5-diglucoside (cyanidin 3,5G), flavonol (quercetin, kaempferol) and flavone (apigenin, luteolin) were used as substrates for measurement of the activity.

SMILES strings stand for the structures.

As for `O=c1c(O)c(-c2ccc(O)cc2)oc2cc(O)cc(O)c12` [kaempferol], the substrate preference entry is recorded as “prefer quercetin to kaempferol”.
For the compound `O=c1c(O)c(-c2ccc(O)c(O)c2)oc2cc(O)cc(O)c12` [quercetin], the substrate preference entry is listed as “prefer quercetin to kaempferol”.
